Results on three compounds are retold here after patent US4758566A, “2-(1-piperazinyl)-4-substituted phenylquinoline derivatives, processes for the preparation thereof, and pharmaceutical composition containing the same” (Dainippon Pharmaceutical Co., Ltd., priority 1984, dated 1988).

In general, ED50 refers to the dose that gives a 50% effect, or the effect in half of the subjects.

The conditions of series [1]: U.S. Pat. No. 4,237,135; cited from earlier work.
The conditions of series [2]: U.S. Pat. No. 4,237,135; cited from earlier work. The source holds these as a separate data set.
The conditions of series [3]: U.S. Pat. No. 4,237,135; cited from earlier work. This is another data set of the same source.
For series [4] the following is noted: U.S. Pat. Nos. 3,542,785 and 3,668,207; cited from earlier work.
For series [5] the following is noted: U.S. Pat. Nos. 3,542,785 and 3,668,207; cited from earlier work. This is another data set of the same source.
Series [6] deals with ulceration induced by ethanol in rats. Nature of the series: Effect on the ulceration induced by ethanol in rats (gastric cytoprotection activity), Test 1. The format is in vivo, rat (male Wistar). Particulars: ethanol-induced ulcer, rat. The procedure:
Effect on the ulceration induced by ethanol in rats (gastric cytoprotection activity) This test was carried out according to the method of Robert [cf. […] Male Wistar rats weighing 190 g to 200 g were fasted for 24 hours and then given orally 1 ml of absolute ethanol. After 1 hour, the animals were sacrificed under ether anesthesia, and the stomachs were removed and cut along the greater curvature. The length (mm) of each lesion in the glandular portion was measured using a dissecting microscope (×12). The sum of the length (mm) of each lesion in a stomach was indicated as an ulcer index. The inhibitory rate was determined by comparing the ulcer index in drug-treated groups with that in control group. Test compounds were administered orally 30 minutes before the administration of ethanol. In the control group, a vehicle (a 0.5% tragacanth solution) was administered orally.

Series [7] relates to ulceration induced by exposure to stress (restraint and water immersion) in rats. Nature of the series: Effect on the ulceration induced by exposure to stress (restraint and water immersion) in rats, Test 2. The format is in vivo, rat (male Wistar). Particulars: stress-induced ulcer, rat, 10 mg/kg p.o. The procedure: Effect on the ulceration induced by exposure to stress (restraint and water immersion) in rats The effect evaluated by this test is considered to be fairly well correlative to inhibitory effect on gastric acid secretion. Male Wistar rats weighing about 200 g were used in groups of 5 animals each. According to the method of Takagi et al. [cf. Japan. […] After 20 hours, the animals were taken out from the water bath and sacrificed under ether anesthesia, and the stomachs were removed. The stomach was inflated with 13 ml of physiological saline and placed in a 5% formalin solution for 5 minutes. After washing with physiological saline, the stomach was cut along the greater curvature and the length (mm) of each lesion in the glandular portion was measured using a dissecting microscope (×12). The sum of the length (mm) of each lesion in a stomach was indicated as an ulcer index. The inhibitory rate was determined by comparing the ulcer index in drug-treated groups with that in control group. Test compounds were administered orally 30 minutes before the immersion. In the control group, a vehicle (a 0.5% tragacanth solution) was administered orally.

Series [8] has as its system ulceration induced by pylorus-ligation (Shay ulcer) in rats. Nature of the series: Effect on the ulceration induced by pylorus-ligation (Shay ulcer) in rats, Test 3. The format is in vivo, rat (male Wistar). Particulars: rat; for Ulcer index: index of 0 to 5. The protocol:
Effect on the ulceration induced by pylorus-ligation (Shay ulcer) in rats […] The portion between pylorus and duodenum of each rat was ligated under ether anesthesia according to the method of Shay et al. […] Each of the animals was then allowed to stand abstained from food and water in a cage. After 18 hours, the animals were sacrificed under ether anesthesia, and the stomachs were removed and cut along the greater curvature. […] 0: no lesion 1: hemorrhage or erosion […] The inhibitory rate was determined by comparing the ulcer index in drug-treated groups with that in the control group. […] Test compounds were administered orally 30 minutes before the ligation. In the control group, a vehicle (a 0.5% tragacanth solution) was administered orally.

Series [9] deals with hypothermia induced by reserpine. Briefly: Antireserpine activity (antagonistic effect on hypothermia induced by reserpine), Test 4. The format is in vivo, mouse (male ddY). Particulars: mouse. The procedure:
Antireserpine activity (antagonistic effect on hypothermia induced by reserpine)
This test was carried out according to the method of Askew [cf. Life Sci., 2, 725 (1963)].
Male ddY mice weighing 22 g to 27 g were used in groups of 5 animals each. Test compounds were administered orally to the animals, and immediately 5 mg/kg of reserpine was injected intraperitoneally. Rectal temperature of each mouse was measured 4 hours later with a thermistor (Shibaura Electric, BMG III-130). The inhibitory rate was determined by comparing the fall of rectal temperature in drug-treated groups with that in control group. In the control group, a vehicle (a 0.5% tragacanth solution) was administered orally.

Series [10] relates to Male ddY mice. Briefly: Acute toxicity, Test 5. It is filed as in vivo, mouse (male ddY). Particulars: 7 days; for Number of dead animals/number of used animals: mouse. From the text:
Male ddY mice weighing 20 g to 25 g were used in groups of 10 animals each. Test compounds, dissolved or suspended in a 0.5% tragacanth solution, were orally administered at a prescribed dose to the animals.

`CCN1CCN(c2cc(-c3ccccc3)c3ccccc3n2)CC1` [2-(4-ethyl-1-piperazinyl)-4-phenylquinoline]: the antireserpine activity entry in [1] is given as “have an antireserpine activity”. The “inhibitory effect on spontaneous locomotor activity” value in series [2] is listed as “inhibitory effect on spontaneous locomotor activity”. Further, the antitremorine activity result in series [3] was “have also antitremorine activity”.
As to `CN1CCN(c2cc(-c3ccccc3)c3cc(Cl)ccc3n2)CC1` [6-chloro-2-(4-methyl-1-piperazinyl)-4-phenylquinoline], the antiinflammatory activity entry in series [4] is “have antiinflammatory and diuretic activities”. Besides, the diuretic activity entry in series [5] is “have antiinflammatory and diuretic activities”.
Take `Cl.Cl.OCCN1CCN(c2cc(-c3ccc(F)cc3)c3ccccc3n2)CC1` [A, 2-[4-(2-hydroxyethyl)-1-piperazinyl]-4-(4-fluorophenyl)quinoline dihydrochloride]: the Ulcer index in [6] (5 mg/kg p.o.) came out at 31.6 ± 11.3 mm; in [6] (10 mg/kg p.o.) it was 9.8 ± 2.9 mm; in series [6] (20 mg/kg p.o.), 9.2 ± 4.1 mm; in [7], 7.4 ± 3.6 mm; in [8] (Shay ulcer, 10 mg/kg p.o.) it was 2.4 ± 0.4; in series [8] (Shay ulcer, 20 mg/kg p.o.) it was 2 ± 0.8. Moreover, the Ulcer index in series [8] (Shay ulcer, 50 mg/kg p.o.) was 1.4 ± 0.2; in [8] (Shay ulcer, 100 mg/kg p.o.), 1.2 ± 0.2. Further, in series [6] (po, 1 h, 5 mg/kg p.o., read-out: Inhibitory rate), the inhibition in vivo at 5 mg/kg came to 33.9%. The inhibition in vivo at 10 mg/kg in series [6] (po, 1 h, 10 mg/kg p.o., read-out: Inhibitory rate) turned out to be 79.5%; in [7] (po, 20 h, read-out: Inhibitory rate), 69.2%. Moreover, the inhibition in vivo at 20 mg/kg in series [6] (po, 1 h, 20 mg/kg p.o., read-out: Inhibitory rate) was 80.8%. Also, the Inhibitory rate came out at 33.3% in series [8] (Shay ulcer, 10 mg/kg p.o.); 44.4% in series [8] (Shay ulcer, 20 mg/kg p.o.); 61.1% in series [8] (Shay ulcer, 50 mg/kg p.o.); 66.7% in series [8] (Shay ulcer, 100 mg/kg p.o.); 20.6% in series [9] (50 mg/kg p.o.); 65.5% in series [9] (100 mg/kg p.o.). The ED50 in series [8] (po, 18 h, Shay ulcer, graphic method, read-out: ED50 (dose required to inhibit ulcer index by 50%)) came out at 26.5 mg/kg. The “potency relative to cimetidine in preventive effect on Shay ulcer” value in [8] (p.o., vs cimetidine) was “about 10 times”. Also, in series [10] (250 mg/kg p.o.), the “death of mouse (in words)” value is reported as “death of mouse was not observed”. Further, the “Number of dead animals/number of used animals” value in [10] (250 mg/kg p.o.) is recorded as 0/10; in [10] (500 mg/kg p.o.), 2/10; in series [10] (1000 mg/kg p.o.) it was 5/10.
